Key:
[1] = target: T1, HCV NS3/4A protease complex, J4L6S strain (Hepatitis C virus genotype 1b, UniProt O92972, C1454S/C1711G); experiment: FRET peptide assay to monitor HCV NS3/4A proteolytic activity (J4L6S strain); type: biochemical, HCV genotype 1b; conditions: read-out: IC50 against NS3/4A J4L6S strain
T1 construct: DNA encoding the recombinant HCV NS3/4A protease complex (amino acids 1027 to 1711) for these strains; inferred from pET21b vector and Ni-NTA purification; made in house; host or cells: Escherichia coli BL21 (DE3), pET21b
From the text: HCV NS3 protease complexes, derived from the BMS strain, H77 strain or J4L6S strain, were generated, as described below. These purified recombinant proteins were generated for use in a homogeneous assay (see below) to provide an indication of how effective compounds of the present disclosure would be in inhibiting HCV NS3 proteolytic activity.
The H77 and J4L6S strains were used for production of recombinant NS3/4A protease complexes. DNA encoding the recombinant HCV NS3/4A protease complex (amino acids 1027 to 1711) for these strains were manipulated as described by P. Gallinari et al. (see Gallinari P, Paolini C, Brennan D, Nardi C, Steinkuhler C, De Francesco R. Biochemistry. 38(17):5620-32, (1999)). Briefly, a three-lysine solubilizing tail was added at the 3′-end of the NS4A coding region. The cysteine in the P1 position of the NS4A-NS4B cleavage site (amino acid 1711) was changed to a glycine to avoid the proteolytic cleavage of the lysine tag. Furthermore, a cysteine to serine mutation was introduced by PCR at amino acid position 1454 to prevent the autolytic cleavage in the NS3 helicase domain. […]

[2] = system: T2, human pancreatic chymotrypsin; experiment: Specificity assay, chymotrypsin; type: biochemical; conditions: 2 h enzyme-inhibitor pre-incubation; read-out: Chymotrypsin activity in the specificity assays (IC50)
T2 construct: "human pancreatic chymotrypsin"
Procedure: The specificities of compounds of the present disclosure were determined against a variety of serine proteases: human neutrophil elastase (HNE), porcine pancreatic elastase (PPE) and human pancreatic chymotrypsin and one cysteine protease: human liver cathepsin B. In all cases a 96-well plate format protocol using calorimetric p-nitroaniline (pNA) substrate specific for each enzyme was used as described previously (PCT Patent Application No. WO 00/09543) with some modifications to the serine protease assays. All enzymes were purchased from Sigma while the substrates were from Bachem.
Each assay included a 2 h enzyme-inhibitor pre-incubation at room temperature followed by addition of substrate and hydrolysis to 30% conversion as measured on a Spectramax Pro microplate reader. Compound concentrations varied from 100 to 0.4 μM depending on their potency. […]
The percentage of inhibition was calculated using the formula: [1−((UVinh−UVblank)/(UVctl−UVblank))]×100 […]

T1 sequence (O92972 1027-1711 C1454S/C1711G, one chain of several): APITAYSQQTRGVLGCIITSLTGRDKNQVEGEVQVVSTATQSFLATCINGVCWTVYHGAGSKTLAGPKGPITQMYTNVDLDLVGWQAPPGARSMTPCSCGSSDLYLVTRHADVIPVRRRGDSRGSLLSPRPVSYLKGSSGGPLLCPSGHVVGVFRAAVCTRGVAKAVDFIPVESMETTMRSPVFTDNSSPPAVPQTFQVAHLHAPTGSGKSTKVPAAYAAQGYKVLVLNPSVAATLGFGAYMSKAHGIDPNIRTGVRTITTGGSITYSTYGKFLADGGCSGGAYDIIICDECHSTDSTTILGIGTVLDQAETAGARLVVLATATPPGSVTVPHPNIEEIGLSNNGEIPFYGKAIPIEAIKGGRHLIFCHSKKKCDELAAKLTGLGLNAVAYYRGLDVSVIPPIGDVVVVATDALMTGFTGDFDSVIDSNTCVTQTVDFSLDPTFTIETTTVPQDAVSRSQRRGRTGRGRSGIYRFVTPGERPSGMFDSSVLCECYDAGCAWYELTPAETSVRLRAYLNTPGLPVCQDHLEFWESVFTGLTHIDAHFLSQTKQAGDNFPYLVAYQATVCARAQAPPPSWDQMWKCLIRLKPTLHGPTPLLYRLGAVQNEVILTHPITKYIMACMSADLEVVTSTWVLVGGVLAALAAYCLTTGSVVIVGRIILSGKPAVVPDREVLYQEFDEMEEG

## C=C[C@@H]1C[C@]1(NC(=O)[C@@H]1C[C@@](O)(c2ccc(-c3ccccc3)cc2)CN1C(=O)[C@@H](NC(=O)OC(C)(C)C)C(C)(C)C)C(=O)NS(=O)(=O)C1CC1 [Compound 3]
[1]
  IC50: 0.9 nM
[2]
  IC50: > 100 µM

Source: patent US7592336B2, “Hepatitis C virus inhibitors” (Bristol-Myers Squibb Company, priority 2005, dated 2009)
